{"source": "the NIST ThermoML archive (doi:10.1016/j.fluid.2012.11.009)", "details": "Liquid, Distillation", "note": "“And” between values parts separate entries of the source, which are not always exact repeats. Equal entries are not always repeated. ± gives the expanded uncertainty stated by the source."}
{"smiles": "CC(O)CNCC(C)O", "note": "(centres undefined) [N-(2-hydroxypropyl)-2-hydroxy-1-propanamine]", "values": [{"measurement": "vapor or sublimation pressure", "setting": "420 K", "value": "2.8 ± 2.4", "unit": "kPa"}, {"measurement": "vapor or sublimation pressure", "setting": "422 K", "value": "3 ± 2.4 kPa and 3.1 ± 2.4 kPa"}, {"measurement": "vapor or sublimation pressure", "setting": "428 K", "value": "4 ± 2.4 kPa and 4.4 ± 2.4 kPa"}, {"measurement": "vapor or sublimation pressure", "setting": "429 K", "value": "4.1 ± 2.4", "unit": "kPa"}, {"measurement": "vapor or sublimation pressure", "setting": "433 K", "value": "4.9 ± 2.4 kPa and 5.1 ± 2.4 kPa"}, {"measurement": "vapor or sublimation pressure", "setting": "437 K", "value": "5.9 ± 2.5", "unit": "kPa"}, {"measurement": "vapor or sublimation pressure", "setting": "440 K", "value": "6.8 ± 2.5", "unit": "kPa"}, {"measurement": "vapor or sublimation pressure", "setting": "441 K", "value": "7 ± 2.5", "unit": "kPa"}, {"measurement": "vapor or sublimation pressure", "setting": "444 K", "value": "7.8 ± 2.5 kPa and 7.9 ± 2.5 kPa"}, {"measurement": "vapor or sublimation pressure", "setting": "447 K", "value": "8.9 ± 2.5", "unit": "kPa"}, {"measurement": "vapor or sublimation pressure", "setting": "448 K", "value": "9.9 ± 2.5", "unit": "kPa"}, {"measurement": "vapor or sublimation pressure", "setting": "449 K", "value": "9.9 ± 2.5", "unit": "kPa"}, {"measurement": "vapor or sublimation pressure", "setting": "450 K", "value": "10.1 ± 2.6", "unit": "kPa"}, {"measurement": "vapor or sublimation pressure", "setting": "451 K", "value": "10.6 ± 2.5 kPa and 10.8 ± 2.5 kPa"}, {"measurement": "vapor or sublimation pressure", "setting": "452 K", "value": "10.9 ± 2.6", "unit": "kPa"}, {"measurement": "vapor or sublimation pressure", "setting": "453 K", "value": "11.9 ± 2.6", "unit": "kPa"}, {"measurement": "vapor or sublimation pressure", "setting": "454 K", "value": "11.8 ± 2.5 kPa and 11.9 ± 2.5 kPa"}, {"measurement": "vapor or sublimation pressure", "setting": "456 K", "value": "12.9 ± 2.6", "unit": "kPa"}, {"measurement": "vapor or sublimation pressure", "setting": "457 K", "value": "13.1 ± 2.6 kPa and 13.9 ± 2.6 kPa"}, {"measurement": "vapor or sublimation pressure", "setting": "458 K", "value": "13.9 ± 2.7 kPa and 14 ± 2.7 kPa"}, {"measurement": "vapor or sublimation pressure", "setting": "460 K", "value": "14.9 ± 2.7", "unit": "kPa"}, {"measurement": "vapor or sublimation pressure", "setting": "461 K", "value": "15.8 ± 2.6", "unit": "kPa"}, {"measurement": "vapor or sublimation pressure", "setting": "464 K", "value": "17.2 ± 2.6", "unit": "kPa"}, {"measurement": "vapor or sublimation pressure", "setting": "465 K", "value": "17.9 ± 2.6", "unit": "kPa"}]}
